In patent US7572794B2, “Anthranilamide pyridinureas as vascular endothelial growth factor (VEGF) receptor kinase inhibitors” (Bayer Schering Pharma AG, priority 2004, dated 2009) one finds IC50 data, which are given here for four compounds.

The target in one assay is T1, KDR-Kinase (VEGFR-2) (Homo sapiens, UniProt P35968).
T1 construct: GST-kinase domain fusion construct of the KDR kinase; GST
Briefly: KDR Kinase Inhibition. Format: biochemical. The following applies: GST-kinase domain fusion construct of KDR; poly(Glu4Tyr) substrate, 32P-ATP, 10 min. The procedure:
Kinase activity was measured with a GST-kinase domain fusion construct of the KDR kinase according to the following protocol to obtain concentration response curves. Components were added into a microtiterplate in the following sequence: 10 μl of inhibitor in threefold final concentration [3% DMSO in buffer (40 mM TrisCl pH 7.5; 1 mM DTT, 1 mM MnCl2, 10 mM MgCl2, 2.5 Promille Polyethyleneglycol 20000)]and 10 μl of substrate mixture [24 μM ATP, 24 μg/ml poly(Glu4Tyr) in buffer, specific activity approx. 500 cpm/pmol ^32P-[…]ATP]. Reaction was started by adding 10 μl of enzyme preparation diluted appropriately in buffer that contains 10 μM vanadate. After incubation for exactly 10 min the reaction was stopped by adding of 10 μl stop solution (250 mM EDTA). 10 μl of the reaction mixture were transferred to phosphocellulose filters. The filters were washed in 0.1% phosphoric acid, dried before meltilex scintillator was applied (Waltac, Perkin-Elmer) and the radioactivity was counted.

Assay [1] addresses T2, Cytochrome P450 isoenzyme 2C9 (Homo sapiens, UniProt P11712).
T2 construct: host or cells: baculovirus/insect cells
Briefly: Cytochrome P450 Inhibition (2C9). Format: in vitro ADME. The following applies: baculovirus/insect cell-expressed human isoenzyme, method of Crespi et al.; read-out: IC50 CYP 2C9. The method, then: (§1) Cytochrome P450 Inhibition
(§2) The Cytochrome P450 isoenzyme inhibition was performed according to the publication of Crespi et al. (Anal. Biochem., 1997, 248, 188-190) with use of the baculovirus/insect cell-expressed, human Cytochrome P 450 isoenzymes (2C9 and 2C19).

The target in assay [2] is T3, Cytochrome P450 isoenzyme 2C19 (Homo sapiens, UniProt P33261).
T3 construct: host or cells: baculovirus/insect cells
Briefly: Cytochrome P450 Inhibition (2C19). The assay is classed as in vitro ADME. The following applies: baculovirus/insect cell-expressed human isoenzyme, method of Crespi et al.; read-out: IC50 CYP 2C19. The method, then: as §1, §2

T2 sequence (P11712 whole entry): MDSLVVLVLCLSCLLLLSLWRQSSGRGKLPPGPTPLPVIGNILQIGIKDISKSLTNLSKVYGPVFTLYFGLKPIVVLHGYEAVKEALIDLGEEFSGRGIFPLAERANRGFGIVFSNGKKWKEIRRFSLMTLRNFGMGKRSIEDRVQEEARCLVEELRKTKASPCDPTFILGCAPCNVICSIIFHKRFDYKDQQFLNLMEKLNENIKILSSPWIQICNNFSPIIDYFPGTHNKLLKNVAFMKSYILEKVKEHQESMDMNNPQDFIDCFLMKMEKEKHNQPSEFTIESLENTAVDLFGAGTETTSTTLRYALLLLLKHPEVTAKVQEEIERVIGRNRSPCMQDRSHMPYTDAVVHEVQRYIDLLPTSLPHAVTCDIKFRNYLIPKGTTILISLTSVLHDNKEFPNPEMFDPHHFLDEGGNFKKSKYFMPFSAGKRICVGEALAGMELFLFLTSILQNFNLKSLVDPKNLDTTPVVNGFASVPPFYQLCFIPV
T3 sequence (P33261 whole entry): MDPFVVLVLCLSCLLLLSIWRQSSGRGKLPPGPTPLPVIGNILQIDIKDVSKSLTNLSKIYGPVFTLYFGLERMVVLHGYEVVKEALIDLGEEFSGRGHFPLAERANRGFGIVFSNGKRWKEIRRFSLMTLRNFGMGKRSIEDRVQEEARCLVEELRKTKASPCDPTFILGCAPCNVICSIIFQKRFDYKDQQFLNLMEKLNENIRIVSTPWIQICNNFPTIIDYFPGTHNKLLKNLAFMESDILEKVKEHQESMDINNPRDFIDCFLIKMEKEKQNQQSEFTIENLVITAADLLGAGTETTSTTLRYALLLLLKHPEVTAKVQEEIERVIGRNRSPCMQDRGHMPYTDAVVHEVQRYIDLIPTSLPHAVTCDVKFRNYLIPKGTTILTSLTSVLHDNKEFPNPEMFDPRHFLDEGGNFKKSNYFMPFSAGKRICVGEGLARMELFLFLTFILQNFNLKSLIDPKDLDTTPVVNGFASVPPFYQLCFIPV
T1 sequence (P35968 834-1162 limits assumed, species assumed): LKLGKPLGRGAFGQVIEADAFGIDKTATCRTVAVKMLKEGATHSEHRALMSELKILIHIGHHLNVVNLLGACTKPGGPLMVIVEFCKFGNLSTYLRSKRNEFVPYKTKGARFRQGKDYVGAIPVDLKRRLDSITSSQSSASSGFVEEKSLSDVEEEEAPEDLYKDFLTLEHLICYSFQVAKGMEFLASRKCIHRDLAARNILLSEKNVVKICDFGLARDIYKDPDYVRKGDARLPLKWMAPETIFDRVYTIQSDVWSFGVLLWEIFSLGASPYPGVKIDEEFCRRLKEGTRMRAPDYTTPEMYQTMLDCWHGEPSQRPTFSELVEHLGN

In general, IC50 refers to the concentration needed to halve the response being measured. In the case of `Cn1cc2ccc(NC(=O)c3ccccc3NCc3ccnc(NC(=O)N4CCC(O)CC4)c3)cc2n1` [Example 1.1, 4-hydroxy-piperidine-1-carboxylic acid (4-{[2-(2-methyl-2H-indazol-6-ylcarbamoyl)-phenylamino]-methyl}-pyridin-2-yl)-amide], the IC50 was found to be 0.02 µM on KDR-Kinase (VEGFR-2), 16 µM in assay [1] and 27 µM in assay [2].
The matching figures for `Cn1cc2ccc(NC(=O)c3ccccc3NCc3ccnc(NC(=O)N4CCC(O)(C(F)(F)F)CC4)c3)cc2n1` [Example 1.2, 4-hydroxy-4-trifluoromethyl-piperidine-1-carboxylic acid (4-{[2-(2-methyl-2H-indazol-6-ylcarbamoyl)-phenylamino]-methyl}-pyridin-2-yl)-amide]: 0.017 µM, 19 µM and 12 µM.
The matching figures for `CN1CCN(C(=O)Nc2cc(CNc3ccccc3C(=O)Nc3ccc4cn(C)nc4c3)ccn2)CC1` [Example 3.0, 4-methyl-piperazine-1-carboxylic acid (4-{[2-(2-methyl-2H-indazol-6-ylcarbamoyl)-phenylamino]-methyl}-pyridin-2-yl)-amide]: 0.029 µM, 4.4 µM and 8.9 µM.
The matching figures for `Cn1cc2ccc(NC(=O)c3ccccc3NCc3ccnc(NC(=O)N4CCOCC4)c3)cc2n1` [Example 3.6, morpholine-4-carboxylic acid (4-{[2-(2-methyl-2H-indazol-6-ylcarbamoyl)-phenylamino]-methyl}-pyridin-2-yl)-amide]: 0.029 µM, 13 µM and 9 µM.
